The record followed here is patent US8871738B2, “Fused bicyclic oxazolidinone CETP inhibitor” (Merck Sharp & Dohme Corp., priority 2011, dated 2014).

The structures appear in SMILES notation.

The first assay deals with endogenous CETP from serum (Homo sapiens (Human), UniProt P11597). The experiment in a line: RTA assay in 95% human serum (CETP-catalyzed CE and TG transfer, endogenous CETP). It is filed as biochemical. The settings on record: RTA assay in 95% human serum; read-out: IC50.
endogenous CETP from serum, sequence (P11597 18-493 limits assumed): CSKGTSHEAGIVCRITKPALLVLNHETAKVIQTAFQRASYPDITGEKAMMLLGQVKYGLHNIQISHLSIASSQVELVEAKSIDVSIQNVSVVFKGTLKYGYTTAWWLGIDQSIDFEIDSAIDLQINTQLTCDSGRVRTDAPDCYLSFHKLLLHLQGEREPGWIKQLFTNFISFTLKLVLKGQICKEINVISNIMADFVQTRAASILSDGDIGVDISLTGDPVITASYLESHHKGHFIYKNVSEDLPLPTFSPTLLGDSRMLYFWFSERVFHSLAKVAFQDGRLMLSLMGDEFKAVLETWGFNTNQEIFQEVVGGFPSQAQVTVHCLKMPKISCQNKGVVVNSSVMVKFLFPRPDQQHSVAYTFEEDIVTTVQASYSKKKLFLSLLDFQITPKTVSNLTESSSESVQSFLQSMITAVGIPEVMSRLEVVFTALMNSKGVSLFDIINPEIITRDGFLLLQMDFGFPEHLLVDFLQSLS
With `COC(=O)c1ccc(-c2cc(-c3ccc(C(F)(F)F)cc3[C@@H]3CC[C@H]4[C@@H](c5cc(C(F)(F)F)cc(C(F)(F)F)c5)OC(=O)N34)c(OC)cc2F)c(C)c1` [Example 6, methyl 2″-{(1R,5S,7aS)-1-[3,5-bis(trifluoromethyl)phenyl]-3-oxotetrahydro-1H-pyrrolo[1,2-c][1,3]oxazol-5-yl}-6′-fluoro-4′-methoxy-2-methyl-4″- (trifluoromethyl)-1,1′:3′,1″- terphenyl-4-carboxylate], the IC50 is 641 nM. Still for that read-out and setting: for `COc1ccc(C#N)cc1-c1ccc(C(F)(F)F)cc1[C@@H]1CC[C@H]2[C@@H](c3cc(C(F)(F)F)cc(C(F)(F)F)c3)OC(=O)N12` [Example 9, 2′-{(1R,5S,7aS)-1-[3,5-bis(trifluoromethyl)phenyl]-3-oxotetrahydro-1H-pyrrolo[1,2-c][1,3]oxazol-5-yl}-6-methoxy-4′-(trifluoromethyl)biphenyl-3-carbonitrile] the value was 224 nM. Turning to `COc1ncc(C(F)(F)F)cc1-c1ccc(C(F)(F)F)cc1[C@@H]1CC[C@H]2[C@@H](c3cc(C(F)(F)F)cc(C(F)(F)F)c3)OC(=O)N12` [Example 10, (1R,5S,7aS)-1-[3,5-bis(trifluoromethyl)phenyl]-5-{2-[2-methoxy-5-(trifluoromethyl)pyridin-3-yl]-5-(trifluoromethyl)phenyl}tetrahydro-1H-pyrrolo[1,2-c][1,3]oxazol-3-one], the IC50 stood at 371 nM. The same measure, in the same setting: for `COc1ncc(Cl)cc1-c1ccc(C(F)(F)F)cc1[C@@H]1CC[C@H]2[C@@H](c3cc(C(F)(F)F)cc(C(F)(F)F)c3)OC(=O)N12` [Example 11, (1R,5S,7aS)-1-[3,5-bis(trifluoromethyl)phenyl]-5-[2-(5-chloro-2-methoxypyridin-3-yl)-5-(trifluoromethyl)phenyl]tetrahydro-1H-pyrrolo[1,2-c][1,3]oxazol-3-one] the value was 294 nM. `N#Cc1cscc1-c1ccc(C(F)(F)F)cc1[C@@H]1CC[C@H]2[C@@H](c3cc(C(F)(F)F)cc(C(F)(F)F)c3)OC(=O)N12` [Example 12, 4-[2-{(1R,5S,7aS)-1-[3,5-bis(trifluoromethyl)phenyl]-3-oxotetrahydro-1H-pyrrolo[1,2-c][1,3]oxazol-5-yl}-4-(trifluoromethyl)phenyl]thiophene-3-carbonitrile]: the IC50 stood at 266 nM. Turning to `COc1ccc(C)cc1-c1ccc(C(F)(F)F)cc1[C@@H]1CC[C@H]2[C@@H](c3cc(C(F)(F)F)cc(C(F)(F)F)c3)OC(=O)N12` [Example 13, (1R,5S,7aS)-1-[3,5-bis(trifluoromethyl)phenyl]-5-[2′-methoxy-5′-methyl-4-(trifluoromethyl)biphenyl-2-yl]tetrahydro-1H-pyrrolo[1,2-c][1,3]oxazol-3-one], the IC50 was determined as 263 nM. On the same count and under the same terms, for `COc1ccc(Cl)cc1-c1ccc(C(F)(F)F)cc1[C@@H]1CC[C@H]2[C@@H](c3cc(C(F)(F)F)cc(C(F)(F)F)c3)OC(=O)N12` [Example 14, (1R,5S,7aS)-1-[3,5-bis(trifluoromethyl)phenyl]-5-[5′-chloro-2′-methoxy-4-(trifluoromethyl)biphenyl-2-yl]tetrahydro-1H-pyrrolo[1,2-c][1,3]oxazol-3-one] the value was 233 nM. Same read-out and setting: for `O=C1O[C@H](c2cc(C(F)(F)F)cc(C(F)(F)F)c2)[C@@H]2CC[C@@H](c3cc(C(F)(F)F)ccc3-c3ccccc3Cl)N12` [Example 15, (1R,5S,7aS)-1-[3,5-bis(trifluoromethyl)phenyl]-5-[2′-chloro-4-(trifluoromethyl)biphenyl-2-yl]tetrahydro-1H-pyrrolo[1,2-c][1,3]oxazol-3-one] the value was 453 nM; for `Cc1cocc1-c1ccc(C(F)(F)F)cc1[C@@H]1CC[C@H]2[C@@H](c3cc(C(F)(F)F)cc(C(F)(F)F)c3)OC(=O)N12` [Example 16, (1R,5S,7aS)-1-[3,5-bis(trifluoromethyl)phenyl]-5-[2-(4-methylfuran-3-yl)-5-(trifluoromethyl)phenyl]tetrahydro-1H-pyrrolo[1,2-c][1,3]oxazol-3-one], 343 nM.

On to `O=C1O[C@H](c2cc(C(F)(F)F)cc(C(F)(F)F)c2)[C@@H]2CC[C@@H](c3cc(C(F)(F)F)ccc3C3=CCCCC3)N12` [Example 17, (1R,5S,7aS)-1-[3,5-bis(trifluoromethyl)phenyl]-5-[2-cyclohex-1-en-1-yl-5-(trifluoromethyl)phenyl]tetrahydro-1H-pyrrolo[1,2-c][1,3]oxazol-3-one], for which the IC50 worked out at 73.6 nM. The same measure, in the same setting: for `O=C1O[C@H](c2cc(C(F)(F)F)cc(C(F)(F)F)c2)[C@@H]2CC[C@@H](c3cc(C(F)(F)F)ccc3-c3ccsc3)N12` [Example 18, (1R,5S,7aS)-1-[3,5-bis(trifluoromethyl)phenyl]-5-[2-thiophen-3-yl-5-(trifluoromethyl)phenyl]tetrahydro-1H-pyrrolo[1,2-c][1,3]oxazol-3-one] the value was 103 nM; for `COc1ccc(F)cc1-c1ccc(C(F)(F)F)cc1[C@@H]1CC[C@H]2[C@@H](c3cc(C(F)(F)F)cc(C(F)(F)F)c3)OC(=O)N12` [Example 19, (1R,5S,7aS)-1-[3,5-bis(trifluoromethyl)phenyl]-5-[5′-fluoro-2′-methoxy-4-(trifluoromethyl)biphenyl-2-yl]tetrahydro-1H-pyrrolo[1,2-c][1,3]oxazol-3-one], 166 nM. `COc1ncccc1-c1ccc(C(F)(F)F)cc1[C@@H]1CC[C@H]2[C@@H](c3cc(C(F)(F)F)cc(C(F)(F)F)c3)OC(=O)N12` [Example 21, (1R,5S,7aS)-1-[3,5-bis(trifluoromethyl)phenyl]-5-[2-(2-methoxypyridin-3-yl)-5-(trifluoromethyl)phenyl]tetrahydro-1H-pyrrolo[1,2-c][1,3]oxazol-3-one]: the IC50 was determined as 316 nM.

For the compound `O=C1O[C@H](c2cc(C(F)(F)F)cc(C(F)(F)F)c2)[C@@H]2CC[C@@H](c3cc(C(F)(F)F)ccc3C3=CCCC3)N12` [Example 22, (1R,5S,7aS)-1-[3,5-bis(trifluoromethyl)phenyl]-5-[2-cyclopent-1-en-1-yl-5-(trifluoromethyl)phenyl]tetrahydro-1H-pyrrolo[1,2-c][1,3]oxazol-3-one], the IC50 is 56.6 nM. Still for that read-out and setting: for `O=C1O[C@H](c2cc(C(F)(F)F)cc(C(F)(F)F)c2)[C@@H]2CC[C@@H](c3cc(C(F)(F)F)ccc3-c3cc(Cl)ccc3F)N12` [Example 23, (1R,5S,7aS)-1-[3,5-bis(trifluoromethyl)phenyl]-5-[5′-chloro-2′-fluoro-4-(trifluoromethyl)biphenyl-2-yl]tetrahydro-1H-pyrrolo[1,2-c][1,3]oxazol-3-one] the value was 188 nM; for `Cc1cscc1-c1ccc(C(F)(F)F)cc1[C@@H]1CC[C@H]2[C@@H](c3cc(C(F)(F)F)cc(C(F)(F)F)c3)OC(=O)N12` [Example 24, (1R,5S,7aS)-1-[3,5-bis(trifluoromethyl)phenyl]-5-[2-(4-methylthiophen-3-yl)-5-(trifluoromethyl)phenyl]tetrahydro-1H-pyrrolo[1,2-c][1,3]oxazol-3-one], 122 nM; for `O=C1O[C@H](c2cc(C(F)(F)F)cc(C(F)(F)F)c2)[C@@H]2CC[C@@H](c3cc(C(F)(F)F)ccc3-c3cc(F)ccc3F)N12` [Example 25, (1R,5S,7aS)-1-[3,5-bis(trifluoromethyl)phenyl]-5-[2′,5′-difluoro-4-(trifluoromethyl)biphenyl-2-yl]tetrahydro-1H-pyrrolo[1,2-c][1,3]oxazol-3-one], 104 nM.

`Cc1ccc(Cl)cc1-c1ccc(C(F)(F)F)cc1[C@@H]1CC[C@H]2[C@@H](c3cc(C(F)(F)F)cc(C(F)(F)F)c3)OC(=O)N12` [Example 26, (1R,5S,7aS)-1-[3,5-bis(trifluoromethyl)phenyl]-5-[5′-chloro-2′-methyl-4-(trifluoromethyl)biphenyl-2-yl]tetrahydro-1H-pyrrolo[1,2-c][1,3]oxazol-3-one]: the IC50 turned out to be 1220 nM. Same read-out and setting: under `COc1cc(F)c(-c2ccc(C(=O)O)cc2C)cc1-c1ccc(C(F)(F)F)cc1[C@@H]1CC[C@H]2[C@@H](c3cc(C)cc(C(F)(F)F)c3)OC(=O)N12` [Example 29, 6′-fluoro-4′-methoxy-2-methyl-2″- {(1R,5S,7aS)-1-[3-methyl-5-(trifluoromethyl)phenyl]-3-oxotetrahydro-1H-pyrrolo[1,2-c][1,3]oxazol-5-yl}-4″- (trifluoromethyl)-1,1′:3′,1″- terphenyl-4-carboxylic acid] stands 44.6 nM; under `COc1ccc(-c2ccc(C(=O)O)cc2C)cc1-c1ccc(F)cc1[C@@H]1CC[C@H]2[C@@H](c3cc(C(F)(F)F)cc(C(F)(F)F)c3)OC(=O)N12` [Example 34, 2″-{(1R,5S,7aS)-1-[3,5-bis(trifluoromethyl)phenyl]-3-oxotetrahydro-1H-pyrrolo[1,2-c][1,3]oxazol-5-yl}-4″-fluoro-4′-methoxy-2-methyl-1,1′:3′,1″- terphenyl-4-carboxylic acid], 229 nM; under `COc1ccc(-c2cnc(C(=O)O)cc2C)cc1-c1ccc(F)cc1[C@@H]1CC[C@H]2[C@@H](c3cc(C(F)(F)F)cc(C(F)(F)F)c3)OC(=O)N12` [Example 38, 5-(2′-{(1R,5S,7aS)-1-[3,5-bis(trifluoromethyl)phenyl}-3-oxotetrahydro-1H-pyrrolo[1,2-c][1,3]oxazol-5-yl}-4′-fluoro-6-methxoybiphenyl-3-yl)-4-methylpyridine-2-carboxylic acid], 1740 nM.

The assay is the same for the next values; noted with them: RTA assay, 95% human serum; read-out: RTA (95% HS).
Regarding `COC(=O)CCc1ccc(OC)c(-c2ccc(C(F)(F)F)cc2[C@@H]2CC[C@H]3[C@@H](c4cc(C(F)(F)F)cc(C(F)(F)F)c4)OC(=O)N23)c1` [Example 1, Methyl 3-[2′-{(1R,5S,7aS)-1-[3,5-bis(trifluoromethyl)phenyl]-3-oxotetrahydro-1H-pyrrolo[1,2-c][1,3]oxazol-5-yl}-6-methoxy-4′-(trifluoromethyl)biphenyl-3-yl]propanoate], the IC50 worked out at 296 nM. Same read-out and setting: under `COc1ccc([C@H]2[C@H](C)NC(=O)[C@@H]2C)cc1-c1ccc(C(F)(F)F)cc1[C@@H]1CC[C@H]2[C@@H](c3cc(C(F)(F)F)cc(C(F)(F)F)c3)OC(=O)N12` [Example 4, (1R,5S,7aS)-1-(3,5-bis(trifluoromethyl)phenyl)-5-(5′-((2S,3S,4R)-2,4-dimethyl-5-oxopyrrolidin-3-yl)-2′-methoxy-4-(trifluoromethyl)-[1,1′-biphenyl]-2-yl)tetrahydropyrrolo[1,2-c]oxazol-3(1H)one] stands 398 nM.
